The test system of experiment [1] is RAW264.7. The experiment is described as follows: Antiinflammatory activity in mouse RAW264.7 assessed as inhibition of LPS-induced NO production at 25 uM pretreated for 2 hrs followed by LPS addition and measured after 24 hrs. In kind it is functional, cell-based. The note with it: time 26.0 hrs.
Experiment [2] has as its system RAW264.7. The experiment in a line: Antiinflammatory activity in mouse RAW264.7 assessed as inhibition of LPS-induced NO production pretreated for 2 hrs followed by LPS addition and measured after 24 hrs. In kind it is functional, cell-based.

pIC50: −log10 of the molar value. Activity calls are given as the source filed them. No cut-off for these calls is given here.

As for `COc1c(-c2ccccc2)oc2c(cc(O[C@@H]3O[C@H](CO)[C@@H](O)[C@H](O)[C@H]3O)c3occc32)c1=O`, in experiment [1], the outcome was Active.

For the compound `COc1cc2c(=O)cc(-c3cccc(O)c3)oc2c2ccoc12`, in experiment [1], the outcome was Active.

On to `COc1c(-c2ccccc2)oc2c(cc(O)c3occc32)c1=O`, for which the outcome in experiment [1] was Active. Moreover, in experiment [2], the pIC50 is 4.65.

For the compound `O=c1cc(-c2cccc(O)c2)oc2c1ccc1occc12`, in experiment [1], the result was Active. In addition, the pIC50 in experiment [2] was 4.56.

For the origin of these results see ChEMBL document CHEMBL5120804, “Total Syntheses and Anti-inflammatory Evaluations of Pongamosides A-C, Natural Furanoflavonoid Glucosides from Fruit of Pongamia pinnata (L.) Pierre” (J Nat Prod, 2022).
